In the NIST ThermoML archive (doi:10.1016/j.jct.2011.07.008):
± gives the expanded uncertainty stated by the source.

Tests used:
[1] = mn = molality of the nth substance listed, in mol/kg; conditions: 101 kPa, Liquid; for viscosity: Capillary tube (Ostwald / Ubbelohde) method
[2] = refractive index (Na D-line) (dimensionless); conditions: 298.15 K; 101.33 kPa; Liquid; Standard Abbe refractometry
[3] = 298.15 K; 101.33 kPa; Liquid; Pycnometric method

COCCO [2-methoxyethan-1-ol] + O
[1]
Conditions	viscosity [mPa·s]
275.15 K, m1 = 0.0097	1.006 ± 0.041
275.15 K, m1 = 0.0205	1.011 ± 0.041
275.15 K, m1 = 0.0313	1.016 ± 0.041
275.15 K, m1 = 0.0393	1.02 ± 0.041
275.15 K, m1 = 0.0487	1.023 ± 0.041
275.15 K, m1 = 0.0638	1.028 ± 0.042
275.15 K, m1 = 0.0719	1.03 ± 0.042
275.15 K, m1 = 0.0813	1.032 ± 0.042
275.15 K, m1 = 0.0905	1.034 ± 0.042
275.15 K, m1 = 0.102	1.035 ± 0.042
283.15 K, m1 = 0.0104	1.001 ± 0.041
283.15 K, m1 = 0.0193	1.002 ± 0.04
283.15 K, m1 = 0.0326	1.005 ± 0.041
283.15 K, m1 = 0.0417	1.006 ± 0.041
283.15 K, m1 = 0.0492	1.008 ± 0.041
283.15 K, m1 = 0.0599	1.011 ± 0.041
283.15 K, m1 = 0.0698	1.013 ± 0.041
283.15 K, m1 = 0.0804	1.016 ± 0.041
283.15 K, m1 = 0.0893	1.019 ± 0.041
283.15 K, m1 = 0.0901	1.019 ± 0.041
283.15 K, m1 = 0.1	1.023 ± 0.041
283.15 K, m1 = 0.1013	1.023 ± 0.041

[1]
Conditions	mass density [kg/m3]
275.15 K, Pycnometric method, m1 = 0.0097	999.96 ± 0.33
275.15 K, Pycnometric method, m1 = 0.0205	999.99 ± 0.33
275.15 K, Pycnometric method, m1 = 0.0313	999.99 ± 0.33
275.15 K, Pycnometric method, m1 = 0.0393	1000.02 ± 0.33
275.15 K, Pycnometric method, m1 = 0.0487	1000.07 ± 0.33
275.15 K, Pycnometric method, m1 = 0.0638	1000.09 ± 0.33
275.15 K, Pycnometric method, m1 = 0.0719	1000.1 ± 0.33
275.15 K, Pycnometric method, m1 = 0.0813	1000.12 ± 0.33
275.15 K, Pycnometric method, m1 = 0.0905	1000.12 ± 0.33
275.15 K, Pycnometric method, m1 = 0.102	1000.17 ± 0.33
283.15 K, Buoyancy - hydrostatic balance with magnetic suspension - one sinker, m1 = 0.0104	999.73 ± 0.23
283.15 K, Buoyancy - hydrostatic balance with magnetic suspension - one sinker, m1 = 0.0193	999.73 ± 0.23
283.15 K, Buoyancy - hydrostatic balance with magnetic suspension - one sinker, m1 = 0.0326	999.76 ± 0.23
283.15 K, Buoyancy - hydrostatic balance with magnetic suspension - one sinker, m1 = 0.0417	999.81 ± 0.23
283.15 K, Buoyancy - hydrostatic balance with magnetic suspension - one sinker, m1 = 0.0492	999.79 ± 0.23
283.15 K, Buoyancy - hydrostatic balance with magnetic suspension - one sinker, m1 = 0.0599	999.88 ± 0.23
283.15 K, Buoyancy - hydrostatic balance with magnetic suspension - one sinker, m1 = 0.0698	999.93 ± 0.23
283.15 K, Buoyancy - hydrostatic balance with magnetic suspension - one sinker, m1 = 0.0804	999.91 ± 0.23
283.15 K, Buoyancy - hydrostatic balance with magnetic suspension - one sinker, m1 = 0.0893	999.94 ± 0.23
283.15 K, Buoyancy - hydrostatic balance with magnetic suspension - one sinker, m1 = 0.0901	999.94 ± 0.23
283.15 K, Buoyancy - hydrostatic balance with magnetic suspension - one sinker, m1 = 0.1	999.95 ± 0.23
283.15 K, Buoyancy - hydrostatic balance with magnetic suspension - one sinker, m1 = 0.1013	999.97 ± 0.23

CCOCCOCCO [3,6-dioxa-1-octanol]
Conditions	mass density [kg/m3]	refractive index
[2]	–	1.4253 ± 0.0008
[3]	984.045 ± 1.6	–

CCOCCOCCO [3,6-dioxa-1-octanol] + O
viscosity [mPa·s], [1]
Conditions	275.15 K	283.15 K
m1 = 0.0092	–	1.004 ± 0.041
m1 = 0.0108	1.008 ± 0.041	–
m1 = 0.019	–	1.008 ± 0.041
m1 = 0.0203	1.015 ± 0.041	–
m1 = 0.0291	–	1.013 ± 0.041
m1 = 0.0306	1.022 ± 0.041	–
m1 = 0.0409	1.029 ± 0.042	–
m1 = 0.0416	–	1.019 ± 0.041
m1 = 0.0482	–	1.023 ± 0.041
m1 = 0.0504	1.035 ± 0.042	–
m1 = 0.062	–	1.03 ± 0.042
m1 = 0.0625	1.043 ± 0.042	–
m1 = 0.0687	–	1.034 ± 0.042
m1 = 0.0707	1.048 ± 0.042	–
m1 = 0.0796	–	1.041 ± 0.042
m1 = 0.0809	1.053 ± 0.043	–
m1 = 0.0904	1.058 ± 0.043	1.047 ± 0.042
m1 = 0.091	–	1.047 ± 0.042
m1 = 0.0998	–	1.053 ± 0.043
m1 = 0.1019	–	1.054 ± 0.043
m1 = 0.1025	1.047 ± 0.042	–

[1]
Conditions	mass density [kg/m3]
275.15 K, Pycnometric method, m1 = 0.0108	1000.05 ± 0.33
275.15 K, Pycnometric method, m1 = 0.0203	1000.15 ± 0.33
275.15 K, Pycnometric method, m1 = 0.0306	1000.23 ± 0.33
275.15 K, Pycnometric method, m1 = 0.0409	1000.34 ± 0.33
275.15 K, Pycnometric method, m1 = 0.0504	1000.42 ± 0.33
275.15 K, Pycnometric method, m1 = 0.0625	1000.52 ± 0.33
275.15 K, Pycnometric method, m1 = 0.0707	1000.62 ± 0.33
275.15 K, Pycnometric method, m1 = 0.0809	1000.69 ± 0.33
275.15 K, Pycnometric method, m1 = 0.0904	1000.79 ± 0.33
275.15 K, Pycnometric method, m1 = 0.1025	1000.86 ± 0.33
283.15 K, Buoyancy - hydrostatic balance with magnetic suspension - one sinker, m1 = 0.0092	999.77 ± 0.23
283.15 K, Buoyancy - hydrostatic balance with magnetic suspension - one sinker, m1 = 0.019	999.8 ± 0.23
283.15 K, Buoyancy - hydrostatic balance with magnetic suspension - one sinker, m1 = 0.0291	999.96 ± 0.23
283.15 K, Buoyancy - hydrostatic balance with magnetic suspension - one sinker, m1 = 0.0416	1000.08 ± 0.23
283.15 K, Buoyancy - hydrostatic balance with magnetic suspension - one sinker, m1 = 0.0482	1000.09 ± 0.23
283.15 K, Buoyancy - hydrostatic balance with magnetic suspension - one sinker, m1 = 0.062	1000.22 ± 0.23
283.15 K, Buoyancy - hydrostatic balance with magnetic suspension - one sinker, m1 = 0.0687	1000.23 ± 0.23
283.15 K, Buoyancy - hydrostatic balance with magnetic suspension - one sinker, m1 = 0.0796	1000.34 ± 0.23
283.15 K, Buoyancy - hydrostatic balance with magnetic suspension - one sinker, m1 = 0.0904	1000.41 ± 0.23
283.15 K, Buoyancy - hydrostatic balance with magnetic suspension - one sinker, m1 = 0.091	1000.39 ± 0.23
283.15 K, Buoyancy - hydrostatic balance with magnetic suspension - one sinker, m1 = 0.0998	1000.48 ± 0.23
283.15 K, Buoyancy - hydrostatic balance with magnetic suspension - one sinker, m1 = 0.1019	1000.46 ± 0.23

O [water] + CCOCCO
[1], m2 = 0
Conditions	viscosity [mPa·s]
275.15 K	1.674 ± 0.069
283.15 K	1.31 ± 0.054

[1], m2 = 0
Conditions	mass density [kg/m3]
275.15 K, Pycnometric method	999.94 ± 0.33
283.15 K, Buoyancy - hydrostatic balance with magnetic suspension - one sinker	999.7 ± 0.23

O [water] + CCOCCOCCO
[1], m2 = 0
Conditions	viscosity [mPa·s]
275.15 K	1.674 ± 0.069
283.15 K	1.31 ± 0.053

[1], m2 = 0
Conditions	mass density [kg/m3]
275.15 K, Pycnometric method	999.94 ± 0.33
283.15 K, Buoyancy - hydrostatic balance with magnetic suspension - one sinker	999.7 ± 0.23

O [water] + COCCO
[1], m2 = 0
Conditions	viscosity [mPa·s]
275.15 K	1.674 ± 0.069
283.15 K	1.31 ± 0.053

[1], m2 = 0
Conditions	mass density [kg/m3]
275.15 K, Pycnometric method	999.94 ± 0.33
283.15 K, Buoyancy - hydrostatic balance with magnetic suspension - one sinker	999.7 ± 0.23

O [water] + COCCOCCO
[1], m2 = 0
Conditions	viscosity [mPa·s]
275.15 K	1.674 ± 0.069
283.15 K	1.31 ± 0.053

[1], m2 = 0
Conditions	mass density [kg/m3]
275.15 K, Pycnometric method	999.94 ± 0.33
283.15 K, Buoyancy - hydrostatic balance with magnetic suspension - one sinker	999.7 ± 0.23
